Assay [1] deals with Stenotrophomonas maltophilia ATCC 13637. As to the kind of experiment: Broth-microdilution test and subsequent plating on agar, Gram-negative bacteria. Format: cell-based. The conditions noted are these: 2 h contact at 37° C., CFU count after 24 h. As to the method: (§1) For each bacterial strain, 3-5 morphologically similar colonies were drawn from fresh cultures, inoculated in Brain Hearth Infusion broth liquid medium and incubated at the temperature of 37° C. under shaking at 225 r.p.m. for 3-4 h. Subsequently, the bacterial suspension was centrifuged at 1000 g for 20 min and the thus obtained pellet was resuspended in phosphate buffer 10 mM. Turbidity was measured in a spectrophotometer with absorbance at 600 nm, equivalent in the range 0.08-0.13 to a concentration of about 10^8 CFU/ml. The bacterial suspension was diluted 1:100 in phosphate buffer 10 mM, and within 30 min 50 microliters of such bacterial suspension (10^6 CFU/ml) were inoculated in each well of the microtiter plate, to obtain a final bacterial concentration of about 5×10^5 CFU/ml.
Several peptides were tested for their ability to inhibit bacterial growth in liquid culture. Fifty microliters of peptide at a concentration comprised between about 0.2 mM and 50 mM were added in 96-well U-bottom plates containing liquid growth medium and one of the following bacteria: Escherichia coli ATCC 25922, P. aeruginosa ATCC 27853, Stenotrophomonas maltophilia ATCC 13637. After 2 hour incubation at 37° C., bacteria were transferred on a solid medium. As a growth control, bacterial cultures were cultured in the absence of peptides.
The bacterial suspension was put in contact for two hours with different concentrations of the peptide at the temperature of 37° C. After incubation, 20 μl were drawn from the wells of each dilution and seeded on solid medium, agar McConkey. The inoculum was evenly distributed on the agarized medium by means of a sterile disposable loop. After incubation for 24 h at the temperature of 37° C., counting of the bacterial colonies (CFU) was performed.

The subject of another assay is S. aureus ATCC 25923. As to the kind of experiment: Broth-microdilution test and subsequent plating on agar, Gram-positive bacteria. The assay is classed as cell-based, Staphylococcus aureus. The note with it: meticillin-sensitive, 2 h contact at 37° C., CFU count after 24 h. On the procedure:
as §1, with “30 min,” for “30 min”
(§2) Several synthetic peptides were tested for their ability to inhibit bacterial growth. Fifty microliters of peptide at a concentration comprised between about 0.2 mM and about 50 mM were added to 96-well U-bottom plates containing phosphate buffer and one of the following bacteria: S. aureus ATCC 25923, meticillin-resistant S. aureus ATCC 43300. After 2 hour incubation at 37° C., bacteria were transferred on a solid medium. As a control, the bacterial cultures were cultured in the absence of peptide.
(§3) The bacterial suspension was put in contact for two hours with different concentrations of the peptide at the temperature of 37° C. After incubation, 20 μl were drawn from the wells of each dilution and seeded on solid medium, Columbia agar supplemented with 5% bovine red blood cells for Gram-positive bacteria. The inoculum was evenly distributed on the agarized medium by means of a sterile disposable loop. After incubation for 24 hours at the temperature of 37° C., counting of the bacterial colonies (CFU) was performed.

Assay [2] relates to meticillin-resistant S. aureus ATCC 43300. The assay is described as above. Format: cell-based, Staphylococcus aureus. The note with it: 2 h contact at 37° C., CFU count after 24 h. On the procedure:
as §1, with “30 min,” for “30 min”
as §2, §3

“And” between values parts separate entries of the source, which are not always exact repeats. Identical values can stand only once.

Regarding `CC[C@H](C)[C@@H]1NC(=O)[C@H](CCCCN)NC(=O)[C@H](C)NC(=O)[C@@H](NC(=O)[C@H](CCCCN)NC(=O)[C@@H](N)Cc2c[nH]cn2)CSSC[C@@H](C(=O)N[C@@H](C)C(=O)O)NC(=O)[C@H](Cc2ccc(O)cc2)NC(=O)[C@H](CCCCN)NC(=O)[C@H](C(C)C)NC(=O)[C@H](Cc2c[nH]cn2)NC(=O)[C@H](C(C)C)NC(=O)CNC(=O)[C@H](CCCNC(=N)N)NC(=O)[C@H](Cc2c[nH]c3ccccc23)NC(=O)[C@H](CCCCN)NC1=O` (relative stereo) [Peptide P2041, HIS*LYS*CYS*ALA*LYS*ILE*LYS*TRP*ARG*GLY*VAL*HIS*VAL*LYS*TYR*CYS*ALA], the “LD90 S. maltophilia ATCC 13637” value in assay [1] is 2.67 µM. In addition, the “LD90 S. aureus ATCC 25923” value was 1.42 µM with S. aureus ATCC 25923; 1.42 μM and 2.89 μg/ml in the assay with S. aureus ATCC 25923 (listed as 2041). Moreover, the “LD90 MRSA ATCC 43300” value in assay [2] is 0.85 µM; in assay [2] (listed as 2041), 0.85 μM and 1.72 μg/ml.

(Values after US10421782B2, “Cyclic cationic peptides with antimicrobial activity” (I.C.F. S.R.L., priority 2012, dated 2019).)
